From PMC3382171 (PLoS ONE, 2012)
Blank lines part the entries; values can stand above or below the compound they belong to.

How the values were obtained:
Assay in all cases: biochemical
PKCalpha = molecular target: T1, PKCalpha (Homo sapiens, UniProt P17252); details: read-out: Dundee KSS % inhibition at 1uM
T1 construct: gene PRKCA
Description: (§1) The METi and RAFi were screened against kinase panels (SelectScreen, Invitrogen; University of Dundee, Division of Signal Transduction Therapy, UK; Upstate Biotechnology/Millipore, Billerica, MA). In these selectivity assays the concentration of ATP was set to the Km value of ATP for each kinase tested to allow for a relative potency comparison between the various kinases. The compounds were tested at 1 µM final concentration. […] (A) Kinase selectivity screen (KSS) performed at Upstate Biotechnology. […] (B) KSS performed at University of Dundee (Division of Signal Transduction Therapy). […] (PDF) Click here for additional data file.

SGK = molecular target: T2, SGK (Homo sapiens, UniProt O00141); details: read-out: Dundee KSS % inhibition at 1uM
T2 construct: gene SGK1
Description: as §1

SAPK3/p38g = molecular target: T3, SAPK3/p38g (Homo sapiens, UniProt P53778); details: read-out: Dundee KSS % inhibition at 1uM
T3 construct: gene MAPK12
Description: as §1

CAMKKB = molecular target: T4, CAMKKB (Homo sapiens, UniProt Q96RR4); details: read-out: Dundee KSS % inhibition at 1uM
T4 construct: gene CAMKK2
Description: as §1

PBK = PBK (Homo sapiens, UniProt Q96KB5); details: read-out: Dundee KSS % inhibition at 1uM
Description: as §1

MSK1 = molecular target: T5, MSK1 (Homo sapiens, UniProt O75582); details: read-out: Dundee KSS % inhibition at 1uM
T5 construct: gene RPS6KA5
Description: as §1

MAPKAP-K1b = molecular target: T6, MAPKAP-K1b (Homo sapiens, UniProt P51812); details: read-out: Dundee KSS % inhibition at 1uM
T6 construct: gene RPS6KA3
Description: as §1

IKKbeta = molecular target: T7, IKKbeta (Homo sapiens, UniProt O14920); details: read-out: Dundee KSS % inhibition at 1uM
T7 construct: gene IKBKB
Description: as §1

chicken SRC = chicken SRC (Gallus gallus, UniProt P00523); details: read-out: Dundee KSS % inhibition at 1uM
Description: as §1

PIM1 = PIM1 (Homo sapiens, UniProt P11309); details: read-out: Dundee KSS % inhibition at 1uM
Description: as §1

rat DYRK1A = rat DYRK1A (Rattus norvegicus, UniProt Q63470); details: read-out: Dundee KSS % inhibition at 1uM
Description: as §1

PRAK = molecular target: T8, PRAK (Homo sapiens, UniProt Q8IW41); details: read-out: Dundee KSS % inhibition at 1uM
T8 construct: gene MAPKAPK5
Description: as §1

AuroraB = molecular target: T9, AuroraB (Homo sapiens, UniProt Q96GD4); details: read-out: Dundee KSS % inhibition at 1uM
T9 construct: gene AURKB
Description: as §1

CSK = CSK (Homo sapiens, UniProt P41240); details: read-out: Dundee KSS % inhibition at 1uM
Description: as §1

IGF1R = IGF1R (Homo sapiens, UniProt P08069); details: read-out: Upstate KSS % inhibition at 1uM
Description: as §1

SRPK1 = SRPK1 (Homo sapiens, UniProt Q96SB4); details: read-out: Dundee KSS % inhibition at 1uM
Description: as §1

rat ROCKII = molecular target: T10, rat ROCKII (Rattus norvegicus, UniProt Q62868); details: read-out: Dundee KSS % inhibition at 1uM
T10 construct: gene Rock2
Description: as §1

JNK3 = molecular target: T11, JNK3 (Homo sapiens, UniProt P53779); details: read-out: Dundee KSS % inhibition at 1uM
T11 construct: gene MAPK10
Description: as §1

MARK3 = MARK3 (Homo sapiens, UniProt P27448); details: read-out: Dundee KSS % inhibition at 1uM
Description: as §1

GSK3B (GSK3 beta) = GSK3B (GSK3 beta) (Homo sapiens, UniProt P49841); design: Invitrogen SelectScreen kinase panel, percent inhibition at 1 uM, ATP at Km; details: read-out: Invitrogen KSS %Inh at 1 µM
Description: (§2) The METi and RAFi were screened against kinase panels (SelectScreen, Invitrogen; University of Dundee, Division of Signal Transduction Therapy, UK; Upstate Biotechnology/Millipore, Billerica, MA). In these selectivity assays the concentration of ATP was set to the Km value of ATP for each kinase tested to allow for a relative potency comparison between the various kinases. The compounds were tested at 1 µM final concentration. […] Supplementary file pone.0039653.s002.pdf: Figure S2 Kinase Selectivity Screen of RAFi. (A) Kinase selectivity screen (KSS) performed at University of Dundee (Division of Signal Transduction Therapy). Values in % inhibition of phosphorylation given 1 µM of RAFi compared to control. (B) KSS performed at Invitrogen (Selectscreen Service) compared to control. Values in % inhibition of phosphorylation given 1 µM of RAFi. (C) Cell based dose response kinase inhibition of indicated kinases by RAFi. (PDF) Click here for additional data file.

PRKACA (PKA) = PRKACA (PKA) (Homo sapiens, UniProt P17612); design: Invitrogen SelectScreen kinase panel, percent inhibition at 1 uM, ATP at Km; details: read-out: Invitrogen KSS %Inh at 1 µM
Description: as §2

SYK = SYK (Homo sapiens, UniProt P43405); design: Invitrogen SelectScreen kinase panel, percent inhibition at 1 uM, ATP at Km; details: read-out: Invitrogen KSS %Inh at 1 µM
Description: as §2

NEK7 = NEK7 (Homo sapiens, UniProt Q8TDX7); design: Invitrogen SelectScreen kinase panel, percent inhibition at 1 uM, ATP at Km; details: read-out: Invitrogen KSS %Inh at 1 µM
Description: as §2

ALK = ALK (Homo sapiens, UniProt Q9UM73); design: Invitrogen SelectScreen kinase panel, percent inhibition at 1 uM, ATP at Km; details: read-out: Invitrogen KSS %Inh at 1 µM
Description: as §2

ABL2 (Arg) = ABL2 (Arg) (Homo sapiens, UniProt P42684); design: Invitrogen SelectScreen kinase panel, percent inhibition at 1 uM, ATP at Km; details: read-out: Invitrogen KSS %Inh at 1 µM
Description: as §2

ABL2 (Arg), sequence (P42684 whole entry): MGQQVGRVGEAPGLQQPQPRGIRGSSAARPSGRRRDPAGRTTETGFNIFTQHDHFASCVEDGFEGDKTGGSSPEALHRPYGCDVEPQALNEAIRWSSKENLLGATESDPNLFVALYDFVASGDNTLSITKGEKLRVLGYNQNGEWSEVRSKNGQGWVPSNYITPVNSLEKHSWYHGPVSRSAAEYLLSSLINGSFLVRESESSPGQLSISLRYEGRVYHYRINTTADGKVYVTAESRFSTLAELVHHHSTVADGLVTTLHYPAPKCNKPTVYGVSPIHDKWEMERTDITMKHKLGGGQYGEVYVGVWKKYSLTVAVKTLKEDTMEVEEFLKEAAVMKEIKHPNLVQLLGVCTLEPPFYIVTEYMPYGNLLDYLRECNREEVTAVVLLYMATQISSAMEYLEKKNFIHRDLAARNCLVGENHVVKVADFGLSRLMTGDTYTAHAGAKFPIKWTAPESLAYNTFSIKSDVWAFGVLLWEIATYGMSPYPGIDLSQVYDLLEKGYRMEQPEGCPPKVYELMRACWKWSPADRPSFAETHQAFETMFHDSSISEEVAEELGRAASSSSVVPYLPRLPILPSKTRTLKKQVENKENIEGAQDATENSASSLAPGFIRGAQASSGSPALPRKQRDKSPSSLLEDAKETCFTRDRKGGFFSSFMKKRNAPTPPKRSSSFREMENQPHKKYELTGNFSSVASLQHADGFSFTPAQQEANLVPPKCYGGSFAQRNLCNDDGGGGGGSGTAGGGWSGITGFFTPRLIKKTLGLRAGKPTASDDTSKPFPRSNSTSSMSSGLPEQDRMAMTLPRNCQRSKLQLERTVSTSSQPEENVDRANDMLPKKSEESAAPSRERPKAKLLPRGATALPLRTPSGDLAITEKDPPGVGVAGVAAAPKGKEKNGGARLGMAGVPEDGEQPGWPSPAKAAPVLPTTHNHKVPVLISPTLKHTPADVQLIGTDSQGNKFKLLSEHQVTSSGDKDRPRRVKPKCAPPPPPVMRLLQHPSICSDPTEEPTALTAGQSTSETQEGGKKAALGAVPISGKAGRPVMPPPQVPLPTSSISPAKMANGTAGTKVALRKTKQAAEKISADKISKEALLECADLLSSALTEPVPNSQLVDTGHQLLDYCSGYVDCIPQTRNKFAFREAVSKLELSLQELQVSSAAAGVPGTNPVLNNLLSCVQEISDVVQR
T10 sequence (Q62868 whole entry): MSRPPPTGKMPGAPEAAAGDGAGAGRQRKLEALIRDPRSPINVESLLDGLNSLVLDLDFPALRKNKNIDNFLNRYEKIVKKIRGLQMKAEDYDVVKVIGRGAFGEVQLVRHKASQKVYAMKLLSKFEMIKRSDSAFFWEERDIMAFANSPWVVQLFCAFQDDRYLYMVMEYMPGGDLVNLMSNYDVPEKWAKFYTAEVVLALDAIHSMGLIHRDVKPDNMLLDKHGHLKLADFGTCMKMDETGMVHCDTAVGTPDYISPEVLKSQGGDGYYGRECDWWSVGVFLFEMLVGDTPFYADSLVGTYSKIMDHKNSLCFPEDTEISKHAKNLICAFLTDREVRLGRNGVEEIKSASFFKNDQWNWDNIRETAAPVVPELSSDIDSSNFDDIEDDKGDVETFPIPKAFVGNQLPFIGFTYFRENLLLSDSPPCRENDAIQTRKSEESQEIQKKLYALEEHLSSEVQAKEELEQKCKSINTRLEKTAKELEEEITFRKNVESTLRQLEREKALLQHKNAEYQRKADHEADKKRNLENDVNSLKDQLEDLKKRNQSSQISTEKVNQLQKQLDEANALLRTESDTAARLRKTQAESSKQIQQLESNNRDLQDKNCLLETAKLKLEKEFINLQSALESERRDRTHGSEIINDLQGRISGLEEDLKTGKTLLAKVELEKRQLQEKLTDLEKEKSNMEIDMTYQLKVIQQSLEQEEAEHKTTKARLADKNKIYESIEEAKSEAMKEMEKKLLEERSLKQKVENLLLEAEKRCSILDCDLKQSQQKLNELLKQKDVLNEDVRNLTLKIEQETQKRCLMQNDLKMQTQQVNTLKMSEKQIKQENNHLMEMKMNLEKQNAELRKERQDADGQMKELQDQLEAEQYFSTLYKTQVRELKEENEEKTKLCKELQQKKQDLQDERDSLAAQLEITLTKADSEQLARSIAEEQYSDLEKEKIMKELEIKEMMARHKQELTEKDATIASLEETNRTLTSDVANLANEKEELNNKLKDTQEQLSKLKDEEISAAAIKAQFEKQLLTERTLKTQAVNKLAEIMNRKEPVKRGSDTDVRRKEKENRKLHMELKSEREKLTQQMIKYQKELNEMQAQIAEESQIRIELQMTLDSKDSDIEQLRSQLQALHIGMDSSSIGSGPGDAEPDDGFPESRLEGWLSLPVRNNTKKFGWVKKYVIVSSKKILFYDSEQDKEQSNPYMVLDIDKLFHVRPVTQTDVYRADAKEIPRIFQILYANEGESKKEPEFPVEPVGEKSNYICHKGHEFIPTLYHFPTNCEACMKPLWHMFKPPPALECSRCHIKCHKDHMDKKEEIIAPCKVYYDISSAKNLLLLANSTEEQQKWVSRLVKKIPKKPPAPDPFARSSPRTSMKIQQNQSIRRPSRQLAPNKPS
T5 sequence (O75582 whole entry): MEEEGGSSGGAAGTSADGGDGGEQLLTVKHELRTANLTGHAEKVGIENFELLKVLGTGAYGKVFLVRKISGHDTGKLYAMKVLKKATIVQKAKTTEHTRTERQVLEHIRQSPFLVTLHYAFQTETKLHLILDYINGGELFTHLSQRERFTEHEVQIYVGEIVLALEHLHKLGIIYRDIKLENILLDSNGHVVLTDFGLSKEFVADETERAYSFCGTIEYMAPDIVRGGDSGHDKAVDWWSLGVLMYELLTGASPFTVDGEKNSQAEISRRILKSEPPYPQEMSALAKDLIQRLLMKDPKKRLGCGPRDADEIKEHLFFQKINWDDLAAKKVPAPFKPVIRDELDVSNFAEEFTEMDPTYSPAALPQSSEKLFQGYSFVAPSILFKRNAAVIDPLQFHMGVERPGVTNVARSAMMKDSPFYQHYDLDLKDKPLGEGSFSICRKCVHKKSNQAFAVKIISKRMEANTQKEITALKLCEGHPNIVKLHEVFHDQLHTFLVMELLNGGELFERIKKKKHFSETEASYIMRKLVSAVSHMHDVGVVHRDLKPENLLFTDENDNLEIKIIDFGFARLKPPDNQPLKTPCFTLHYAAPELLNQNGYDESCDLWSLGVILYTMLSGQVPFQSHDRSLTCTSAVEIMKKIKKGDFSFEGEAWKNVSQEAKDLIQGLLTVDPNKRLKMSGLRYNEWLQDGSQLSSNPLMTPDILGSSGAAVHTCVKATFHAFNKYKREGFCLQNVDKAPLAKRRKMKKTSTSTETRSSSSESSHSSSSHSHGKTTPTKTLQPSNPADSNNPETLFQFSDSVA
T8 sequence (Q8IW41 whole entry): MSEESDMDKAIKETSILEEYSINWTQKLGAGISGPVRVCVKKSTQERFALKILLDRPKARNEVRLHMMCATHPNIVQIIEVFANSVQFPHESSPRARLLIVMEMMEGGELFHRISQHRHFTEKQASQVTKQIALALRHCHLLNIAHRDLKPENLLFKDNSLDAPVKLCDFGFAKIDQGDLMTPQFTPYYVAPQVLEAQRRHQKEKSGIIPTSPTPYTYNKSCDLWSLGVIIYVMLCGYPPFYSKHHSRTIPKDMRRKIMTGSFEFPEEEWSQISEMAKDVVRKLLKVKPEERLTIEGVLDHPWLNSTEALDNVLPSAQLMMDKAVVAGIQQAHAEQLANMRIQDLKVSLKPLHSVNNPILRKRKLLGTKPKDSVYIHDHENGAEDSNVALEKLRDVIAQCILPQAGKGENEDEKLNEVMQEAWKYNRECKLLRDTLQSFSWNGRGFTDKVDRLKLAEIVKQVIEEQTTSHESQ
PIM1, sequence (P11309 whole entry): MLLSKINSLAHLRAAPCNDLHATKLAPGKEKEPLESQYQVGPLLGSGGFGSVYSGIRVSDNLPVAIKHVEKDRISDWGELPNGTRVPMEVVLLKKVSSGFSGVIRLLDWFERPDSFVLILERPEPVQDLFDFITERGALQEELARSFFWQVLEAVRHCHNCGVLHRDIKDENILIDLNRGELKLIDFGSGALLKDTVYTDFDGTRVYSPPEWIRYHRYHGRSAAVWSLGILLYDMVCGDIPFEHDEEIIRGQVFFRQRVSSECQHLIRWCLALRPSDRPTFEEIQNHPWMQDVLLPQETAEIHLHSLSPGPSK
GSK3B (GSK3 beta), sequence (P49841 whole entry): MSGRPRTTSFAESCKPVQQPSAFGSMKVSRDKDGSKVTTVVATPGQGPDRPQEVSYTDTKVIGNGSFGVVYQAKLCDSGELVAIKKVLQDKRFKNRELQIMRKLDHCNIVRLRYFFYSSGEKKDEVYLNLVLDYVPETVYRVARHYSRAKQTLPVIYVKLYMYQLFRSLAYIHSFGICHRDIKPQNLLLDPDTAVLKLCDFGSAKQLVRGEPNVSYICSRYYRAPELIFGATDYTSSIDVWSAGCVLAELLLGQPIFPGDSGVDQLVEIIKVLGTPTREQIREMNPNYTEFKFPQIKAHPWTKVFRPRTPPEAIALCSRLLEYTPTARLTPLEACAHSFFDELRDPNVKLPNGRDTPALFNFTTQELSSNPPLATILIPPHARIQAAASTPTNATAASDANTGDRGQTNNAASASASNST
T11 sequence (P53779 whole entry): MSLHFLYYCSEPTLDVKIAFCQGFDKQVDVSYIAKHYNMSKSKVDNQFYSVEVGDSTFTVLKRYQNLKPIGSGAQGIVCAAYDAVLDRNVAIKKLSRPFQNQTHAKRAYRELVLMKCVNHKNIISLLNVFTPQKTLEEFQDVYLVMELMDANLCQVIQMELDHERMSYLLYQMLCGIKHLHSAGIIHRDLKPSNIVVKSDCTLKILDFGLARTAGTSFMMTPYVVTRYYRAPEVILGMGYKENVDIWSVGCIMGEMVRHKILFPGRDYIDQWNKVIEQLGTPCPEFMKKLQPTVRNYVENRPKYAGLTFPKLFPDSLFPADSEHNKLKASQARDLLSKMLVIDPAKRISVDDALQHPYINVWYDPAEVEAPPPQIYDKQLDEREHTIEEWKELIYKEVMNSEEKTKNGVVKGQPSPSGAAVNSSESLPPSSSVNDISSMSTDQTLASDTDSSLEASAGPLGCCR

inhibition at 1 µM (PKCalpha): 14.3%
inhibition at 1 µM (SGK): 29.4%
inhibition at 1 µM (SAPK3/p38g): 3.7%
inhibition at 1 µM (CAMKKB): 16.2%
inhibition at 1 µM (PBK): 5.14%
inhibition at 1 µM (MSK1): 5.55%
inhibition at 1 µM (MAPKAP-K1b): 24.9%
inhibition at 1 µM (IKKbeta): 22.5%
inhibition at 1 µM (chicken SRC): -11.5%
inhibition at 1 µM (PIM1): 4.46%
inhibition at 1 µM (rat DYRK1A): 2.39%
inhibition at 1 µM (PRAK): 4.01%
inhibition at 1 µM (AuroraB): 11.2%
inhibition at 1 µM (CSK): 5.77%
inhibition at 1 µM (IGF1R): 103%
inhibition at 1 µM (SRPK1): 13.5%
inhibition at 1 µM (rat ROCKII): 12.8%
inhibition at 1 µM (JNK3): -2.36%
inhibition at 1 µM (MARK3): 4.4%
Structure (SMILES): OCCn1cc(-c2cnc3nnn(Cc4ccc5ncccc5c4)c3n2)cn1 [METi, PF-04217903]

inhibition at 1 µM (GSK3B (GSK3 beta)): 23%
inhibition at 1 µM (PRKACA (PKA)): -1%
inhibition at 1 µM (SYK): -35%
inhibition at 1 µM (NEK7): 23%
inhibition at 1 µM (ALK): 23%
inhibition at 1 µM (ABL2 (Arg)): -1%
Structure (SMILES): N#CCCNc1nccc(-c2cn(CC(F)F)nc2-c2cnc3[nH]ccc3c2)n1 [RAFi, PF-04880594]
